Test results taken from patent US20250360134A1, “6-6 OR 5-6 FUSED BICYCLIC COMPOUNDS COMPRISING A PYRI(MI)DINE RING USEFUL IN THE|TREATMENT OF INFECTIOUS DISEASES” (INSTITUT NATIONAL DE LA SANTE ET DE LA RECHERCHE MEDICALE …, priority 2020, published 2025).
Counter-ions that a name gives are not always drawn. Like-named read-outs stand apart in the source and are kept apart here.

What was measured:
[1] = tested on: Trypanosoma 9 and 11 chromosomic sequence FTrypBT; test: FRET-melting, FTrypBT; conditions: K+ condition, 2 μM compound, 0.2 μM oligonucleotide
[2] = tested on: human telomeric sequence F21T; test: FRET-melting, F21T; conditions: K+ condition, 2 μM compound, 0.2 μM oligonucleotide
[3] = tested on: Plasmodium telomeric sequence FPf1T; test: FRET-melting, FPf1T; conditions: K+ condition, 2 μM compound, 0.2 μM oligonucleotide
[4] = tested on: Plasmodium telomeric sequence FPf8T; test: FRET-melting, FPf8T; conditions: K+ condition, 2 μM compound, 0.2 μM oligonucleotide
[5] = Cytotoxicity evaluation, MTT; format: cell-based, human; conditions: HepG2 cells (hepatocarcinoma-derived, ATCC HB-8065); human HepG2 cells, 72 hours, MTT
Description: The aim of this assay was to evaluate the impact of metabolic activation of the tested compounds on cell viability.
A cytotoxicity evaluation was performed using the method reported in Emami S A et al., Iran J Basic Med Sci 2012; 15:807-11 to determine the cytotoxic concentrations 50% (CC50) and using doxorubicin as a cytotoxic reference compound. These assays were performed in human HepG2 cells. HepG2 cells were purchased from ATCC (ref HB-8065). These cells are a commonly used human hepatocarcinoma-derived cell line that has characteristics similar to those of primary hepatocytes. These cells express many hepatocyte-specific metabolic enzymes, thus enabling the cytotoxicity of tested product metabolites to be evaluated. Briefly, cells in 100 μl of complete RPMI medium [RPMI supplemented with 10% FCS, 1% 1-glutamine (200 mM), penicillin (100 U/ml), and streptomycin (100 μg/ml)] were inoculated into each well of 96-well plates and incubated at 37° C. in a humidified chamber in 6% CO2. After 24 hours, 100 μl of medium with test compound at various concentrations dissolved in DMSO (final concentration less than 0.5% v/v) was added, and the plates were incubated for 72 hours at 37° C. Duplicate assays were performed for each sample. Each well was microscopically examined for precipitate formation before the medium was aspirated from the wells. After aspiration, 100 μl of MTT solution (0.5 mg/ml in medium without FCS) were then added to each well. Cells were incubated for 2 hours at 37° C. MTT solution was removed, and DMSO (100 μl) was added to dissolve the resulting blue formazan crystals. Plates were shaken vigorously (300 rpm) for 5 min. The absorbance was measured at 570 nm with 630 nm as reference wavelength in a BIO-TEK ELx808 Absorbance Microplate Reader. DMSO was used as blank and doxorubicin (Sigma-Aldrich) as positive control. Cell viability was calculated as percentage of control (cells incubated without compound).

[6] = tested on: Plasmodium falciparum W2; test: In vitro antiplasmodial activity, SYBR Green I, strain W2; conditions: Plasmodium falciparum, W2, 48 h, read-out: IC50 Plasmodium falciparum W2, chloroquine-resistant strain W2, 48-hour incubation
Description: The in vitro antiplasmodial activities were tested over concentrations ranging from 39 to 40 μm against culture-adapted Plasmodium falciparum: reference strains 3D7 and W2. […] The parasites were cultivated in RPMI medium (Sigma-Aldrich, Lyon, France) supplemented with 0.5% Albumax I (Life Technologies Corporation, Paisley, UK), hypoxanthine (Sigma-Aldrich), and gentamicin (Sigma-Aldrich) with human erythrocytes and were incubated at 37° C. in a candle jar, as described in Desjardins R E et al., Antimicrob Agents Chemother, 1979; 16:710-18.
The P. falciparum drug susceptibility test was carried out in 96-well flat bottom sterile plates in a final volume of 250 μL. After a 48-hour incubation with the drugs, quantities of DNA in treated and control cultures of parasites in human erythrocytes were quantified using the SYBR Green I (Sigma-Aldrich) fluorescence-based method as described in Bennett T N et al, Antimicrob Agents Chemother, 2004; 48:1807-10. Briefly, after incubation, plates were frozen at −20° C. until use. Plates were then thawed for 2 hours at room temperature, and 100 μL of each homogenized culture was transferred to a well of a 96-well flat bottom sterile black plate (Nunc, Inc., Rochester, NY) that contained 100 μL of the SYBR Green I lysis buffer (2×SYBR Green, 20 mM Tris base pH 7.5, 5 mM EDTA, 0.008% w/v saponin, 0.08% w/v Triton X-100). […] Plates were incubated for 1 hour at room temperature and then read on a fluorescence plate reader (Tecan, Grödig, Austria) using excitation and emission wavelengths of 485 and 535 nm, respectively. Concentrations inhibiting 50% of the parasite's growth (half maximal inhibitory concentration or IC50 values) were then calculated from the obtained experimental results by non-linear regression analysis of data from dose-response curves, using TableCurve 2D version 5.0 software (Systat Software, San Jose, CA). IC50 values are reported as means calculated from three independent experiments, as described in H. Kaddouri et al., Antimicrob.

[7] = tested on: human duplex sequence FdxT; test: FRET-melting, FdxT; conditions: duplex control, K+ condition, 2 μM compound, 0.2 μM oligonucleotide
[8] = tested on: T. brucei brucei AnTat 1.9; test: In vitro antitrypanosomal activity, Alamar Blue assay; format: cell-based, Trypanosoma brucei brucei; conditions: Trypanosoma brucei, read-out: IC50 T. brucei brucei
Description: The effects of the tested compounds on the growth of T. brucei brucei were assessed using an Alamar Blue® assay described in B. Raz et al., Acta Trop. 1997, 68, 139. T. brucei brucei AnTat 1.9 (IMTA, Antwerpen, Belgium) was cultured in MEM with Earle's salts, supplemented according to the protocol disclosed in T. Baltz et al., EMBO J. 1985, 4, 1273, with the following modifications: 0.5 mM mercaptoethanol (Sigma-Aldrich), 1.5 mM 1-cysteine (Sigma-Aldrich), 0.05 mM bathocuproine sulfate (Sigma-Aldrich), and 20% heat-inactivated horse serum (Gibco, France) at 37° C. and 5% CO2. Samples were incubated at an average density of 2000 parasites/well in sterile 96-well plates (Fisher, France) with various concentrations of compounds dissolved in 0.9% NaCl. All doses were tested in duplicate. Appropriate controls treated with solvents 0.9% NaCl or DMSO or with suramin, pentamidine, eflornithine, and fexinidazole (reference drugs purchased from Sigma-Aldrich and Fluorochem, UK) were added to each set of experiments. After a 69-hour incubation at 37° C., 10 μl of the viability marker Alamar Blue (Fisher) was added to each well, and the plates were incubated for 5 hour. The plates were read in a PerkinElmer ENSPIRE (Germany) microplate reader using an excitation wavelength of 530 nm and an emission wavelength of 590 nm. The IC50 was defined as the concentration of drug necessary to inhibit by 50% the activity of T. brucei brucei compared to the control. IC50 values were calculated using a non-linear regression analysis of dose-response curves performed using GraphPad Prism software (USA). IC50 values were calculated from three independent experiments.

[9] = tested on: Plasmodium falciparum 3D7; test: In vitro antiplasmodial activity, SYBR Green I, strain 3D7; conditions: Plasmodium falciparum, 3D7, 48 h, read-out: IC50 Plasmodium falciparum 3D7, chloroquine-sensitive strain 3D7, 48-hour incubation
[10] = 69-hour incubation, Alamar Blue

| Compound | FRET-melting values in K+ conditions at 2 μM ΔTm FtryBT [1] [°C] | FRET-melting values in K+ conditions at 2 μM ΔTm F21T [2] [°C] | FRET-melting values in K+ conditions at 2 μM ΔTm FPf1T [3] [°C] | FRET-melting values in K+ conditions at 2 μM ΔTm FPf8T [4] [°C] | IC50 at 72 h [5] [µM] | IC50 [6] [µM] | FRET-melting values in K+ conditions at 2 μM ΔTm FdxT [7] [°C] | IC50 ([8]; 69 h) [µM] | IC50 [9] [µM] | IC50 [8, 10] [µM] |
| --- | --- | --- | --- | --- | --- | --- | --- | --- | --- | --- |
| CN1CCN(CCCNCc2ccc(-c3nc(-c4ccc(CNCCCN5CCN(C)CC5)cc4)c4ccn(-c5ccccc5)c4n3)cc2)CC1 [Compound 2B, 2,4-bis{4-[(3-(4-methylpiperazin-1-yl)propyl)aminomethyl]phenyl}-7-phenyl-7H-pyrrolo[2,3-d]pyrimidine oxalate] | 17.3 | 19.6 | 19.1 | 20.0 | 1.08 | 1.01 ± 0.16 | 0.7 | 0.88 ± 0.07 | – | – |
| CN(C)CCCNCc1ccc(-c2nc(-c3ccc(CNCCCN(C)C)s3)c3ccn(-c4ccccc4)c3n2)cc1 [Compound 6B, 2-{4-[(3-Dimethylaminopropyl)aminomethyl]phenyl}-4-{5-[(3-dimethylaminopropyl)aminomethyl]thien-2-yl}-7-phenyl-7H-pyrrolo[2,3-d]pyrimidine oxalate] | 23.1 | 25.5 | 26.3 | 26.6 | 1.74 | 0.75 ± 0.16 | 1.7 | 0.14 ± 0.02 | 1.21 ± 0.18 | – |
| CN(C)CCCNCc1ccc(-c2nc(-c3ccc(CNCCCN(C)C)s3)nc3c2ccn3-c2ccccc2)cc1 [Compound 7B, 4-{4-[(3-Dimethylaminopropyl)aminomethyl]phenyl}-2-{5-[(3-dimethylaminopropyl)aminomethyl]thien-2-yl}-7-phenyl-7H-pyrrolo[2,3-d]pyrimidine oxalate] | 10.5 | 13.8 | 11.5 | 12.8 | 1.91 | 2.39 ± 0.08 | −0.3 | 0.63 ± 0.07 | 0.88 ± 0.24 | – |
| CN(C)CCCNCc1ccc(-c2nc(Cl)nc3[nH]ccc23)cc1 [Compound 15B, 2-Chloro-4-{4-[(3-dimethylaminopropyl)aminomethyl]phenyl}-7H-pyrrolo[2,3-d]pyrimidine oxalate] | – | 0.3 | – | – | 23.7 | 15.2 ± 2.08 | 0.1 | 0.51 ± 0.07 | 10.3 ± 0.22 | – |
| CN1CCN(CCCNCc2ccc(-c3nc(Cl)nc4[nH]ccc34)cc2)CC1 [Compound 16B, 2-Chloro-4-{4-[(3-(4-methylpiperazin-1-yl)propyl)aminomethyl]phenyl}-7H-pyrrolo[2,3-d]pyrimidine oxalate] | – | 0.8 | – | – | 63.5 | 25.9 ± 4.63 | 0.1 | 1.34 ± 0.25 | 10.5 ± 0.23 | – |
| CN(C)CCCNCc1ccc(-c2nc(Cl)nc3c2ccn3-c2ccccc2)cc1 [Compound 17B, 2-Chloro-4-{4-[(3-dimethylaminopropyl)aminomethyl]phenyl}-7-phenyl-7H-pyrrolo[2,3-d]pyrimidine oxalate] | – | – | – | – | 2.87 | 0.29 ± 0.04 | −0.2 | 0.02 | 1.01 ± 0.41 | – |
| CN(C)CCCNCc1ccc(-c2nc(Cl)nc3c2ccn3-c2ccccc2)s1 [Compound 19B, 2-Chloro-4-{5-[(3-dimethylaminopropyl)aminomethyl]thien-2-yl}-7-phenyl-7H-pyrrolo[2,3-d]pyrimidine oxalate] | – | 6.2 | – | – | 1.88 | 4.56 ± 0.56 | −1.8 | 0.05 ± 0.01 | 1.97 ± 0.36 | – |
| CN(C)CCCNCc1ccc(-c2nc3c(c(-c4ccc(CNCCCN(C)C)cc4)n2)CCN(C(=O)OC(C)(C)C)C3)cc1 [Compound 24B, Tert-butyl 2,4-bis{4-[(3-dimethylaminopropyl)aminomethyl]phenyl})-5,6-dihydropyrido[3,4-d]pyrimidine-7(8H)-carboxylate oxalate] | 7.6 | 10.3 | 9.1 | 11.6 | – | 0.18 ± 0.04 | −0.7 | – | 1.63 ± 0.25 | 0.78 ± 0.06 |
| CN(C)CCCNCc1ccc(-c2nc3c(c(-c4ccc(CNCCCN(C)C)cc4)n2)CCNC3)cc1 [Compound 25B, 2,4-Bis{4-[(3-dimethylaminopropyl)aminomethyl]phenyl})-5,6,7,8-dihydropyrido[3,4-d]pyrimidine oxalate] | 8.0 | 12.3 | 10.7 | 11.1 | – | 2.23 ± 0.23 | −0.9 | – | 0.79 ± 0.12 | 2.43 ± 0.1 |
| CN(C)CCCNCc1ccc(-c2nc(NCCCN(C)C)nc3sccc23)cc1 [Compound 28B, 2-(3-Dimethylaminopropylamino)-4-{4-[(4-dimethylaminopropyl)aminomethyl]phenyl}thieno[2,3-d]pyrimidine oxalate] | – | 2.41 | – | – | 35.2 | 11.5 ± 2.47 | −0.77 | – | 0.03 | 1.1 ± 0.26 |
